{"source": "patent US20080089956A1", "about": "“NITRIC OXIDE IN TREATMENT OF INFLAMMATION” (AGA AB, priority 2003, published 2008)", "type_in_all_cases": "in vivo, piglets of Swedish country breed", "key": {"glucocorticoid receptor": {"system": "glucocorticoid receptor", "experiment": "GR expression, immunohistochemical staining of tissue from endotoxin-exposed piglets", "settings": "compared with LPS group", "method": "(§1) Anesthesia, surgery preparation and catheterizations were followed by 30 min of rest. Baseline measurements were then made. The pigs were followed for another 6 hours to establish control data over the whole study period. The pigs were killed after the last measurement with an intra-venous injection of KCl; and tissue samples were taken from the lung, liver and kidney for morphological and biochemical studies.\n(§2) Anesthesia, surgery and catheterizations were similar to the controls. After baseline measurements, acute lung injury and septic shock was induced by intravenous infusion of LPS 25 μg/kg/h in saline for 2.5 h, followed by 10 μg/kg/h for the remainder of the study. […]\n(§3) The antibodies were detected with the peroxidase-anti-peroxidase method using 3-amino-9-ethyl-carbazole (AEC, SIGMA Catalogue No. A-6926 Germany) as chromogen. […]\n(§4) An image-analysis system consisting of a 12-bit cooled charge-coupled device camera (Sensys KAF 1400, Photometrics, Tucson, AZ) mounted on a fully automated Leica (Wetzlar, Germany) DM RXA microscope was used to digitize grey-scale images to a dual-Pentium 200 MHz host computer. […] The optimal central wavelength was determined by measurement of the substrate in a Leica MPV SP microscope photometer system (courtesy of Leica)."}, "NF-κB": {"system": "NF-κB", "experiment": "Expression of NF-κB, immunohistochemical staining of tissue from endotoxin-exposed piglets", "method": "as §1, §2, §3, §4"}, "[1]": {"system": "endotoxin pig model (LPS-induced acute lung injury and septic shock)", "experiment": "Haemodynamics and arterial oxygenation in endotoxin (LPS) pig model", "method": "(§5) The pigs were divided into 5 groups: • 1. Normal control group • 2. Endotoxin (lipopolysaccharide, LPS) group • 3. LPS+INO group • 4. LPS+steoid group • 5. LPS +INO +steroid group • The different protocols are shown schematically in FIG. 1 and are described below. 1. Healthy Control Group (n=8)\n(§6) After baseline measurements, acute lung injury and septic shock was induced by intravenous infusion of LPS 25 μg/kg/h in saline for 2.5 h, followed by 10 μg/kg/h for the remainder of the study. The pigs were followed by hemodynamics and blood gas measurements and were killed at the end of the experiment and tissue samples were taken, as described above.\n(§7) LPS infusion was started after baseline measurements and continued for 6 hours. Two and half hours after commencement of the endotoxin infusion, inhalation of NO 30 ppm was started and maintained for 3.5 hours. Measurements were taken every hour to check for any protective effect of INO therapy on the lung and extra-pulmonary organs.\n(§8) This group received endotoxin over 6 hours, as described above, and 2.5 hours after the start of endotoxin administration steroids were given i.v. and INO, 30 ppm, was commenced and continued for the remaining 3.5 hours study period.\n(§9) NO, 1000 ppm in N2, was added to a mixture of O2/N2 and administered through the low-flow inlet of the ventilator. The inspired gas was passed through a canister containing soda lime to absorb any NO2. […] The concentrations of inspired NO and NO2 were measured continuously, by chemiluminescence (9841 NOx, Lear Siegler Measurement Controls Corporation, Englewood, Colo., USA), in the inspiratory limb of the ventilator tubing."}, "[2]": {"system": "endotoxin pig model (LPS-induced acute lung injury and septic shock)", "experiment": "Histological changes of lung, liver and kidney tissues in endotoxin pig model", "design": "Congestion / Inflammatory cell infiltrate / Congestion and hemorrhage / Edema/ Hemorrage: key to the marks not given beside the values", "method": "as §5, §1, §6, §7, §8\nas §9, with “tubing. FIO2 was checked after addition of NO and kept stable at the pre-INO level.” for “tubing.”"}, "[3]": {"settings": "piglets during 6 h endotoxin infusion, treatment from 2.5 h"}, "[4]": {"settings": "Kidney, piglets, LPS infusion 6 h, treatment from 2.5 h (INO 30 ppm; hydrocortisone 3.5 mg/kg i.v.)"}, "[5]": {"settings": "Liver, piglets, LPS infusion 6 h, treatment from 2.5 h (INO 30 ppm; hydrocortisone 3.5 mg/kg i.v.)"}}, "note": "“Also recorded” adds a separate entry of the source."}
{"substance": "nitric oxide [LPS + INO]", "values": [{"measurement": "expression of glucocorticoid receptor in lung tissue, in words", "setting": "glucocorticoid receptor", "value": "significantly raised"}, {"measurement": "NF-kB expression in lung tissue, in words", "setting": "NF-κB", "value": "at a low level"}, {"measurement": "arterial oxygenation (PaO2), effect in words", "setting": "[1]; [3]", "value": "improved oxygenation; also recorded: prevented part of the fall in PaO2"}, {"measurement": "mean pulmonary artery pressure (MPAP), effect in words", "setting": "[1]; [3]", "value": "lowered MPAP but not back to normal; also recorded: attenuated the increase in MPAP"}, {"measurement": "MPAP higher than in healthy controls", "setting": "[1]; piglets during endotoxin infusion with INO 30 ppm, p<0.01 vs healthy controls", "value": "75-80%"}, {"measurement": "histology changes of kidney tissue, in words", "setting": "[2]; Kidney, endotoxin-exposed piglets, compared with LPS group / healthy", "value": "even less marked than in the LPS+Steroid group"}, {"measurement": "Edema/ Hemorrage", "setting": "[2]; [4]", "value": "+++"}, {"measurement": "Inflammatory cell infiltrate", "setting": "[2]; [4]", "value": "+++"}, {"measurement": "histology changes of liver tissue, in words", "setting": "[2]; Liver, endotoxin-exposed piglets, compared with LPS group / healthy", "value": "much less than in the LPS group"}, {"measurement": "Congestion and hemorrhage", "setting": "[2]; [5]", "value": "++"}, {"measurement": "Destruction of the lobular structure", "setting": "[2]; [5]", "value": "+"}, {"measurement": "Inflammatory cell infiltrate", "setting": "[2]; [5]", "value": "+++"}, {"measurement": "histology changes of lung tissue, in words", "setting": "[2]; Lung, endotoxin-exposed piglets, compared with LPS group / healthy", "value": "even less of these changes"}, {"measurement": "Inflammatory cell infiltrate", "setting": "[2]; Lung, piglets, LPS infusion 6 h, treatment from 2.5 h (INO 30 ppm for 3.5 h; hydrocortisone 3.5 mg/kg i.v.)", "value": "+++"}, {"measurement": "Congestion", "setting": "[2]; Lung, piglets, LPS infusion 6 h, treatment from 2.5 h (INO 30 ppm; hydrocortisone 3.5 mg/kg i.v.)", "value": "+++"}, {"measurement": "inflammatory response, in words", "setting": "[2]; endotoxin pig model, lung, liver and kidney (discussion)", "value": "attenuated the inflammatory response but only to a limited degree"}]}
